In patent US20230049231A1 (priority 2019, published 2023):

What was measured:
Kv1.3 potassium channel = target: T1, Kv1.3 potassium channel (Homo sapiens, UniProt P22001); assay: Kv1.3 potassium channel blocker activity, automated whole-cell patch clamp (Patchliner); type: cell-based
T1 construct: expressed in transfected cells
Description: This assay is used to evaluate the disclosed compounds' activities as Kv1.3 potassium channel blockers.
CHO-K1 cells stably expressing Kv1.3 were grown in DMEM containing 10% heat-inactivated FBS, 1 mM sodium pyruvate, 2 mM L-glutamine and G418 (500 μg/ml). Cells were grown in culture flasks at 37° C. in a 5% CO2-humidified incubator.
(§1) The cells were bathed in an extracellular solution containing 140 mM NaCl, 4 mM KCl, 2 mM CaCl2), 1 mM MgCl2, 5 mM glucose, and 10 mM HEPES; pH adjusted to 7.4 with NaOH; 295-305 mOsm. The internal solution contained 50 mM KCl, 10 mM NaCl, 60 mM KF, 20 mM EGTA, and 10 mM HEPES; pH adjusted to 7.2 with KOH; 285 mOsm. All compounds were dissolved in DMSO at 30 mM. Compound stock solutions were freshly diluted with external solution to concentrations of 30 nM, 100 nM, 300 nM, 1 μM, 3 μM, 10 μM, 30 μM and 100 μM. The highest content of DMSO (0.3%) was present in 100 μM.
The currents were evoked by applying 100 ms depolarizing pulses from −90 mV (holding potential) to +40 mV were applied with 0.1 Hz frequency. Control (compound-free) and compound pulse trains for each compound concentration applied contained 20 pulses.
10-second breaks were used between pulse trains (see Table 2 below).
Whole-cell current recordings and compound application were enabled by means of an automated patch clamp platform Patchliner (Nanion Technologies GmbH). EPC 10 patch clamp amplifier (HEKA Elektronik Dr. Schulze GmbH) along with Patchmaster software (HEKA Elektronik Dr. Schulze GmbH) was used for data acquisition. Data were sampled at 10 kHz without filtering. Passive leak currents were subtracted online using a P/4 procedure (HEKA Elektronik Dr. Schulze GmbH). Increasing compound concentrations were applied consecutively to the same cell without washouts in between. Total compound incubation time before the next pulse train was not longer than 10 seconds. Peak current inhibition was observed during compound equilibration.
(§2) AUC and peak values were obtained with Patchmaster (HEKA Elektronik Dr. Schulze GmbH). To determine IC50, the last single pulse in the pulse train corresponding to a given compound concentration was used. Obtained AUC and peak values in the presence of compound were normalized to control values in the absence of compound. Using Origin (OridinLab), IC50 was derived from data fit to Hill equation: Icompound/Icontrol=(100−A)/(1+([compound]/IC50)nH)+A, where IC50 value is the concentration at which current inhibition is half-maximal, [compound] is the applied compound concentration, A is the fraction of current that is not blocked and nH is the Hill coefficient.

hERG channel = target: T2, hERG channel (Homo sapiens, UniProt Q12809); assay: hERG electrophysiology, automated whole-cell patch clamp (Patchliner); type: cell-based
T2 construct: expressed in transfected cells
T2 sequence (Q12809 whole entry): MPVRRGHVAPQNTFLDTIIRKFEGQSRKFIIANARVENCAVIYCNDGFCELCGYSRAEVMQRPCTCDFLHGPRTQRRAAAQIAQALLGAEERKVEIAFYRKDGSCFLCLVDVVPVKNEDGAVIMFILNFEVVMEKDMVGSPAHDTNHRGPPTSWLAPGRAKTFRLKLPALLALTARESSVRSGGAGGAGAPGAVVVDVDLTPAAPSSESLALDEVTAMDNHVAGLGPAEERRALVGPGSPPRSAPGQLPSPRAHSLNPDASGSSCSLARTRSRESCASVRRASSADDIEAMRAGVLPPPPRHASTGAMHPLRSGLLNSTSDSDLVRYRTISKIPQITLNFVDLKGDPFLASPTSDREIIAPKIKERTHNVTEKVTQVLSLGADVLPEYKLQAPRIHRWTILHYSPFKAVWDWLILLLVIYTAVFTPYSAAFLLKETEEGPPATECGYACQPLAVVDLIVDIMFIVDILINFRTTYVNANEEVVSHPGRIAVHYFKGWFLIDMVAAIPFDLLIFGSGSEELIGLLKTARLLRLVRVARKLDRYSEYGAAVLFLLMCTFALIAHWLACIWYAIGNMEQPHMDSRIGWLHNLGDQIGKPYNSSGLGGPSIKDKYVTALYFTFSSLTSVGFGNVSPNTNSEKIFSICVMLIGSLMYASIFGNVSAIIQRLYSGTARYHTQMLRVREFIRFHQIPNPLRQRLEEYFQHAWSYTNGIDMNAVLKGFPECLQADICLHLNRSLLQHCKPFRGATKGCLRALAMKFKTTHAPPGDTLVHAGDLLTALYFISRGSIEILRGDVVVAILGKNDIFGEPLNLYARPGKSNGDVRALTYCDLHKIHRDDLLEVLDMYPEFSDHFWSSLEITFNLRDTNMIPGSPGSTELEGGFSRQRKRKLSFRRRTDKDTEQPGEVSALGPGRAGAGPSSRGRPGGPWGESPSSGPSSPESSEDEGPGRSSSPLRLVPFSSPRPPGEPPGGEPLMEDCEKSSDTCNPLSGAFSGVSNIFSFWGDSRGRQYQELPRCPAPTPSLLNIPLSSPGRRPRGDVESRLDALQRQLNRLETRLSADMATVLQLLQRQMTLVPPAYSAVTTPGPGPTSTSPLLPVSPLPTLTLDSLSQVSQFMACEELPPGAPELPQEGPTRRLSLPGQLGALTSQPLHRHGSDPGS
Description: This assay is used to evaluate the disclosed compounds' inhibition activities against the hERG channel.
CHO-K1 cells stably expressing hERG were grown in Ham's F-12 Medium with glutamine containing 10% heat-inactivated FBS, 1% penicillin/streptomycin, hygromycin (100 μg/ml) and G418 (100 μg/ml). Cells were grown in culture flasks at 37° C. in a 5% CO2-humidified incubator.
as §1
The voltage protocol (see Table 3) was designed to simulate voltage changes during a cardiac action potential with a 300 ms depolarization to +20 mV (analogous to the plateau phase of the cardiac action potential), a repolarization for 300 ms to −50 mV (inducing a tail current) and a final step to the holding potential of −80 mV. The pulse frequency was 0.3 Hz. Control (compound-free) and compound pulse trains for each compound concentration applied contained 70 pulses.
Whole-cell current recordings and compound application were enabled by means of an automated patch clamp platform Patchliner (Nanion). EPC 10 patch clamp amplifier (HEKA) along with Patchmaster software (HEKA Elektronik Dr. Schulze GmbH) was used for data acquisition. Data were sampled at 10 kHz without filtering. Increasing compound concentrations were applied consecutively to the same cell without washouts in between.
as §2, with “PEAK” for “peak”, “IC50” for “IC50,”, “Icompound/Icontrol=(100-A)/(1+([compound]/IC50)nH)+A,” for “Icompound/Icontrol=(100−A)/(1+([compound]/IC50)nH)+A,”, “IC50” for “IC50 value”

[1] = CHO-K1 cells stably expressing Kv1.3, 100 ms pulses from -90 mV to +40 mV, 0.1 Hz
[2] = CHO-K1 cells stably expressing hERG, +20 mV 300 ms, -50 mV 300 ms tail current, 0.3 Hz
[3] = Kv1.3 potassium channel, whole-cell patch clamp
[4] = hERG channel, whole-cell patch clamp

T1 sequence (P22001 whole entry): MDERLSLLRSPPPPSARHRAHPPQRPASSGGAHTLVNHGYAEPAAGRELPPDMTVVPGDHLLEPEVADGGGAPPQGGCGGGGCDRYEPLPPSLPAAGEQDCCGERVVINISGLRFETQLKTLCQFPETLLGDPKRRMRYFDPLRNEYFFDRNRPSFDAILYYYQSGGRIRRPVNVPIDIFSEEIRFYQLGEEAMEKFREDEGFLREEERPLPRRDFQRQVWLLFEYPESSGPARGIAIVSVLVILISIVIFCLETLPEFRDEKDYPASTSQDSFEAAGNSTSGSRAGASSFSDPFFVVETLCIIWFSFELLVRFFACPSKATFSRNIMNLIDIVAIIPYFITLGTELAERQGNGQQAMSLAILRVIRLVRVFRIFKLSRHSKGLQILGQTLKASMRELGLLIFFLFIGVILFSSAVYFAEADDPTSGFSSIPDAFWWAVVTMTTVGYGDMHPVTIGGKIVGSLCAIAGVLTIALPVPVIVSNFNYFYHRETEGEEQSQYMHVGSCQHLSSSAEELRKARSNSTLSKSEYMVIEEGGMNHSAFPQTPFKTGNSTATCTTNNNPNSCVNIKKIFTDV

Q: How did the IC50 (Kv1.3 potassium channel; [1]) turn out when `O=C([C@H](O)CO)N1CC(=O)N2CC[C@H](c3c(O)ccc(Cl)c3Cl)C[C@@H]2C1` (relative stereo) [Compound 10, (8S,9aR)-rel-8-(2,3-dichloro-6-hydroxyphenyl)-2-[(2R)-2,3-dihydroxypropanoyl]-hexahydro-1H-pyrido[1,2-a]pyrazin-4-one] was run?
A: Its IC50 is less than 1 µM.

Q: And the IC50 (hERG channel; [2])?
A: Its IC50 is greater than 30 µM.

Q: How did the IC50 (Kv1.3 potassium channel; [1]) turn out when `O=C1[C@@H](CO)NC[C@@H]2C[C@H](c3c(O)ccc(Cl)c3Cl)CCN12` (relative stereo) [Compound 28, (8R,9aS)-rel-8-(2,3-dichloro-6-hydroxyphenyl)-3-((3R)-hydroxymethyl-octahydropyrido[1,2-a]pyrazin-4-one trifluoroacetic acid] was run?
A: The IC50 was less than 1 µM.

Q: And the IC50 (hERG channel; [2])?
A: The IC50 was greater than 30 µM.

Q: Which IC50 (Kv1.3 potassium channel; [1]) does the source give for `O=C(C1CNC1)N1CC(=O)N2CC[C@@H](c3c(O)ccc(Cl)c3Cl)C[C@H]2C1` (relative stereo) [Compound 32, (8S,9aR)-rel-2-(azetidine-3-carbonyl)-8-(2,3-dichloro-6-hydroxyphenyl)-hexahydro-1H-pyrido[1,2-a]pyrazin-4-one] here?
A: The IC50 was less than 1 µM.

Q: And the IC50 (hERG channel; [2])?
A: Its IC50 is greater than 30 µM.

Q: What does the source list for `O=C1CN([C@H]2C[C@H](O)C2)C[C@@H]2C[C@H](c3c(O)ccc(Cl)c3Cl)CN12` (relative stereo) [Compound 125, (7R,8aS)-7-(2,3-dichloro-6-hydroxyphenyl)-2-[(1r,3S)-rel-3-hydroxycyclobutyl] hexahydropyrrolo [1,2-a]pyrazin-4-one]?
A: IC50 (Kv1.3 potassium channel; [3]): < 1 µM; IC50 (hERG channel; [4]): > 30 µM

Q: Which results are given for `O=C1CN([C@H]2C[C@@H](O)C2)C[C@@H]2C[C@H](c3c(O)ccc(Cl)c3Cl)CN12` (relative stereo) [Compound 126, (7R,8aS)-7-(2,3-dichloro-6-hydroxyphenyl)-2-[(1s,3R)-rel-3-hydroxycyclobutyl] hexahydropyrrolo [1,2-a]pyrazin-4-one]?
A: IC50 (Kv1.3 potassium channel; [3]): < 1 µM; IC50 (hERG channel; [4]): > 30 µM

Q: `O=C1CN([C@H]2C[C@@H](O)[C@@H](O)C2)C[C@@H]2C[C@H](c3c(O)ccc(Cl)c3Cl)CN12` (relative stereo) [Compound 130, (7R,8aS)-7-(2,3-dichloro-6-hydroxyphenyl)-2-[(1R,3R,4S)-rel-3,4-dihydroxycyclopentyl]-hexahydropyrrolo [1,2-a]pyrazin-4-one] was tested. Which IC50 (Kv1.3 potassium channel; [3]) did it give?
A: The IC50 was less than 1 µM.

Q: What about the IC50 (hERG channel; [4]) of the same compound?
A: The IC50 was greater than 30 µM.

Q: What does the source list for `O=C1CN([C@@H]2C[C@@H](O)[C@@H](O)C2)C[C@@H]2C[C@H](c3c(O)ccc(Cl)c3Cl)CN12` (relative stereo) [Compound 131, (7R,8aS)-7-(2,3-dichloro-6-hydroxyphenyl)-2-[(1S,3R,4S)-rel-3,4-dihydroxycyclopentyl]-hexahydropyrrolo [1,2-a]pyrazin-4-one]?
A: IC50 (Kv1.3 potassium channel; [3]): < 1 µM; IC50 (hERG channel; [4]): > 30 µM

Q: Which IC50 (Kv1.3 potassium channel; [3]) does the source give for `O=C1CN(C2CC[C@@H](O)[C@H]2O)C[C@@H]2C[C@H](c3c(O)ccc(Cl)c3Cl)CN12` (relative stereo) [Compound 136, (7R,8aS)-7-(2,3-dichloro-6-hydroxyphenyl)-2-[(2S,3R)-rel-2,3-dihydroxycyclopentyl]-hexahydropyrrolo [1,2-a]pyrazin-4-one] here?
A: The IC50 was less than 1 µM.

Q: What about the IC50 (hERG channel; [4]) of the same compound?
A: The IC50 was greater than 30 µM.

Q: `O=C1CN([C@H]2COC[C@@H]2O)C[C@@H]2C[C@H](c3c(O)ccc(Cl)c3Cl)CN12` (relative stereo) [Compound 154, (7R,8aS)-7-(2,3-dichloro-6-hydroxyphenyl)-2-[(3S,4R)-rel-4-hydroxyoxolan-3-yl]-hexahydropyrrolo [1,2-a]pyrazin-4-one] was tested. Which IC50 (Kv1.3 potassium channel; [3]) did it give?
A: The IC50 was less than 1 µM.

Q: And the IC50 (hERG channel; [4])?
A: The IC50 was greater than 30 µM.

Q: Which IC50 (Kv1.3 potassium channel; [3]) does the source give for `O=C1CN([C@@H]2COC[C@H]2O)C[C@@H]2C[C@H](c3c(O)ccc(Cl)c3Cl)CN12` (relative stereo) [Compound 155, (7R,8aS)-7-(2,3-dichloro-6-hydroxyphenyl)-2-[(3R,4S)-rel-4-hydroxyoxolan-3-yl]-hexahydropyrrolo[1,2-a]pyrazin-4-one] here?
A: Its IC50 is less than 1 µM.

Q: What about the IC50 (hERG channel; [4]) of the same compound?
A: The IC50 was greater than 30 µM.

Q: With `O=C1CN([C@H]2CC[C@@H]2O)C[C@@H]2C[C@H](c3c(O)ccc(Cl)c3Cl)CN12` (relative stereo) [Compound 158, (7R,8aS)-7-(2,3-dichloro-6-hydroxyphenyl)-2-[(1R,2R)-rel-2-hydroxycyclobutyl]-hexahydropyrrolo[1,2-a]pyrazin-4-one] as the compound, how does the IC50 (Kv1.3 potassium channel; [3]) read?
A: Its IC50 is less than 1 µM.

Q: What about the IC50 (hERG channel; [4]) of the same compound?
A: Its IC50 is greater than 30 µM.

Q: Which IC50 (Kv1.3 potassium channel; [3]) does the source give for `O=C1CN([C@@H]2CC[C@H]2O)C[C@@H]2C[C@H](c3c(O)ccc(Cl)c3Cl)CN12` (relative stereo) [Compound 159, (7R,8aS)-7-(2,3-dichloro-6-hydroxyphenyl)-2-[(1S,2S)-rel-2-hydroxycyclobutyl]-hexahydropyrrolo[1,2-a]pyrazin-4-one] here?
A: The IC50 was less than 1 µM.

Q: What about the IC50 (hERG channel; [4]) of the same compound?
A: The IC50 was greater than 30 µM.

Q: `C[C@H](O)[C@H](CO)N1CC(=O)N2C[C@@H](c3c(O)ccc(Cl)c3Cl)C[C@H]2C1` (relative stereo) [Compound 165, (7R,8aS)-7-(2,3-dichloro-6-hydroxyphenyl)-2-[(2S,3S)-rel-1,3-dihydroxybutan-2-yl]-hexahydropyrrolo[1,2-a]pyrazin-4-one] was tested. Which IC50 (Kv1.3 potassium channel; [3]) did it give?
A: Its IC50 is less than 1 µM.

Q: And the IC50 (hERG channel; [4])?
A: The IC50 was greater than 30 µM.

Q: For `C[C@@H](O)[C@@H](CO)N1CC(=O)N2C[C@@H](c3c(O)ccc(Cl)c3Cl)C[C@H]2C1` (relative stereo) [Compound 166, (7R,8aS)-7-(2,3-dichloro-6-hydroxyphenyl)-2-[(2R,3R)-rel-1,3-dihydroxybutan-2-yl]-hexahydropyrrolo[1,2-a]pyrazin-4-one], which IC50 (Kv1.3 potassium channel; [3]) is on record?
A: Its IC50 is less than 1 µM.

Q: What about the IC50 (hERG channel; [4]) of the same compound?
A: Its IC50 is greater than 30 µM.

Q: What does the source list for `O=C1C[C@H](O)[C@H](O)[C@@H]2C[C@H](c3c(O)ccc(Cl)c3Cl)CN12` (relative stereo) [Compound 225, (7S,8R)-rel-(2R, 8aS)-2-(2,3-dichloro-6-hydroxyphenyl)-7,8-dihydroxy-hexahydro-1H-indolizin-5-one]?
A: IC50 (Kv1.3 potassium channel; [3]): < 1 µM; IC50 (hERG channel; [4]): > 30 µM

Q: With `O=C1[C@@H](CO)OC[C@@H]2C[C@H](c3c(O)ccc(Cl)c3Cl)CCN12` (single isomer, unassigned) [Compound 52] as the compound, how does the IC50 (Kv1.3 potassium channel; [1]) read?
A: Its IC50 is less than 1 µM.

Q: What about the IC50 (hERG channel; [2]) of the same compound?
A: The IC50 was greater than 30 µM.

Q: How did the IC50 (Kv1.3 potassium channel; [3]) turn out when `O=C1CN(C[C@@H](O)CO)C[C@@H]2C[C@H](c3c(O)ccc(Cl)c3Cl)CN12` (single isomer, unassigned) [Compound 114] was run?
A: Its IC50 is less than 1 µM.

Q: And the IC50 (hERG channel; [4])?
A: Its IC50 is greater than 30 µM.

Q: How did the IC50 (Kv1.3 potassium channel; [3]) turn out when `C[C@H](CO)N1CC(=O)N2C[C@@H](c3c(O)ccc(Cl)c3Cl)C[C@H]2C1` (single isomer, unassigned) [Compound 116] was run?
A: Its IC50 is less than 1 µM.

Q: What about the IC50 (hERG channel; [4]) of the same compound?
A: The IC50 was greater than 30 µM.

Q: For `O=C1OC[C@@H]2C[C@H](c3c(O)ccc(Cl)c3Cl)CCN12` [Compound 252, (7R,8aS)-7-(2,3-dichloro-6-hydroxyphenyl)-hexahydro-[1,3]oxazolo[3,4-a]pyridin-3-one], which IC50 (Kv1.3 potassium channel; [3]) is on record?
A: The IC50 was less than 1 µM.

Q: Which IC50 (Kv1.3 potassium channel; [3]) does the source give for `O=C1N(CCO)C[C@@H]2C[C@H](c3c(O)ccc(Cl)c3Cl)CN12` [Compound 290, (6R,7aS)-6-(2,3-dichloro-6-hydroxyphenyl)-2-(2-hydroxyethyl)hexahydro-3H-pyrrolo[1,2-c]imidazol-3-one] here?
A: The IC50 was less than 10 µM.

Q: For `CN1C[C@@H]2C[C@H](c3c(O)ccc(Cl)c3Cl)CN2C1=O` [Compound 291, (6R,7aS)-6-(2,3-dichloro-6-hydroxyphenyl)-2-methyl-tetrahydro-1H-pyrrolo[1,2-c]imidazol-3-one], which IC50 (Kv1.3 potassium channel; [3]) is on record?
A: Its IC50 is less than 10 µM.
